What was measured:
HCV NS5B = target: T1, HCV NS5B (Hepatitis C virus genotype 1b, UniProt Q9WMX2); assay: Modified HCV NS5B RdRp enzyme assay (preincubation protocol); assay type: biochemical
T1 construct: The protein was expressed with an 18 amino acid C-terminal truncation to enhance the solubility; made in house; host or cells: E. coli BL21(DE3)
Protocol: The cDNA encoding the NS5B protein of HCV, genotype 1b, was cloned into the pET21a expression vector. The protein was expressed with an 18 amino acid C-terminal truncation to enhance the solubility. The E. coli competent cell line BL21(DE3) was used for expression of the protein. Cultures were grown at 37° C. for ˜4 hours until the cultures reached an optical density of 2.0 at 600 nm. The cultures were cooled to 20° C. and induced with 1 mM IPTG. Fresh ampicillin was added to a final concentration of 50 μg/ml and the cells were grown overnight at 20° C.
Cell pellets (3 L) were lysed for purification to yield 15-24 mgs of purified NS5B. The lysis buffer consisted of 20 mM Tris-HCl, pH 7.4, 500 mM NaCl, 0.5% triton X-100, 1 mM DTT, 1 mM EDTA, 20% glycerol, 0.5 mg/ml lysozyme, 10 mM MgCl2, 15 ug/ml deoxyribonuclease I, and Complete TM protease inhibitor tablets (Roche). After addition of the lysis buffer, frozen cell pellets were resuspended using a tissue homogenizer. To reduce the viscosity of the sample, aliquots of the lysate were sonicated on ice using a microtip attached to a Branson sonicator. The sonicated lysate was centrifuged at 100,000×g for 1 hr at 4° C. and filtered through a 0.2 μm filter unit (Corning).
The protein was purified using three sequential chromatography steps: Heparin sepharose CL-6B, polyU sepharose 4B, and […] SP sepharose (Pharmacia). The chromatography buffers were identical to the lysis buffer but contained no lysozyme, deoxyribonuclease I, MgCl2 or protease inhibitor and the NaCl concentration of the buffer was adjusted according to the requirements for charging the protein onto the column. Each column was eluted with a NaCl gradient which varied in length from 5-50 column volumes depending on the column type. After the final chromatography step, the resulting purity of the enzyme is >90% based on SDS-PAGE analysis. The enzyme was aliquoted and stored at −80° C.
HCV RdRp genotype 1b assays were run in a final volume of 60 μl in 96 well plates (Costar 3912). The assay buffer is composed of 20 mM Hepes, pH 7.5, 2.5 mM KCl, 2.5 mM MgCl2, 1 mM DTT, 1.6 U RNAse inhibitor (Promega N2515), 0.1 mg/ml BSA (Promega R3961), and 2% glycerol. All compounds were serially diluted (3-fold) in DMSO and diluted further in water such that the final concentration of DMSO in the assay was 2%. HCV RdRp genotype 1b enzyme was used at a final concentration of 28 nM. A polyA template was used at 6 nM, and a biotinylated oligo-dT12 primer was used at 180 nM final concentration. Template was obtained commercially (Amersham 27-4110). Biotinylated primer was prepared by Sigma Genosys. 3H-UTP was used at 0.6 μCi (0.29 μM total UTP). Reactions were initiated by the addition of enzyme, incubated at 30° C. for 60 min, and stopped by adding 25 μl of 50 mM EDTA containing SPA beads (4 μg/μl, Amersham RPNQ 0007). Plates were read on a Packard TOPCOUNT® NXT after >1 hr incubation at room temperature.
A modified enzyme assay was performed essentially as described for the standard enzyme assay except for the following: The biotinylated oligo dT12 primer was precaptured on streptavidin-coated SPA beads by mixing primer and beads in assay buffer and incubating at room temperature for one hour. Unbound primer was removed after centrifugation. The primer-bound beads were resuspended in 20 mM Hepes buffer, pH 7.5 and used in the assay at final concentrations of 20 nM primer and 0.67 μg/μl beads. Order of addition in the assay: enzyme (14 nM) was added to diluted compound followed by the addition of a mixture of template (0.2 nM), 3H-UTP (0.6 μCi, 0.29 μM), and primer-bound beads, to initiate the reaction; concentrations given are final. Reactions were allowed to proceed for 4 hours at 30° C.
IC50 values for compounds were determined using seven different [I]. IC50 values were calculated from the inhibition using the formula y=A+((B−A)/(1+((C/x)^D))).

HCV replicon = HCV replicon assay (FRET or luciferase reporter); assay type: cell-based; details: Hepatitis C virus, one of the methods described
Excerpt: To perform the HCV FRET screening assay, 96-well cell culture plates were used, The FRET peptide (Anaspec, Inc.) (Taliani et al., Anal. Biochem., 240:60-67 (1996)) contains a fluorescence donor, EDANS, near one end of the peptide and an acceptor, DABCYL, near the other end. The fluorescence of the peptide is quenched by […] resonance energy transfer (RET) between the donor and the acceptor, but as the NS3 protease cleaves the peptide the products are released from RET quenching and the fluorescence of the donor becomes apparent. The assay reagent was made as follows: 5× cell Luciferase cell culture lysis reagent from Promega (#E153A) diluted to 1× with dH2O, NaCl added to 150 mM final, the FRET peptide diluted to 20 μM final from a 2 mM stock.
To prepare plates, HCV replicon cells, with or without a Renilla luciferase reporter gene, were trypsinized and placed into each well of a 96-well plate with titrated test compounds added in columns 3 through 12; columns 1 and 2 contained a control compound (HCV protease inhibitor), and the bottom row contained cells without compound. The plates were then placed in a CO2 incubator at 37° C.
Subsequent to addition of the test compounds described above (FRET Assay Preparation), at various times the plate was removed and Alamar blue solution (Trek Diagnostics, #00-100) was added per well as a measure of cellular toxicity. After reading in a CYTOFLUOR® 4000 instrument (PE Biosystems), plates were rinsed with PBS and then used for FRET assay by the addition of 30 ul of the FRET peptide assay reagent described above (FRET Assay Preparation) per well. The plate was then placed into the CYTOFLUOR® 4000 instrument which had been set to 340 excite/490 emission, automatic mode for 20 cycles and the plate read in a kinetic mode. Typically, the signal to noise using an endpoint analysis after the reads was at least three-fold. Alternatively, after Alamar blue reading, plates were rinsed with PBS, 50 ul of DMEM (high glucose) without phenol red was added and plates were then used for luciferase assay using the Promega DUAL-GLO® Luciferase Assay System.
Compound analysis was determined by quantification of the relative HCV replicon inhibition and the relative cytotoxicity values. To calculate cytoxicity values, the average Alamar Blue fluorescence signals from the control wells were set as 100% non-toxic. The individual signals in each of the compound test wells were then divided by the average control signal and multiplied by 100% to determine […]. To calculate the HCV replicon inhibition values, an average background value was obtained from the two wells containing the highest amount of HCV protease inhibitor at the end of the assay period. These numbers were similar to those obtained from naïve Huh-7 cells.
The background numbers were then subtracted from the average signal obtained from the control wells and this number was used as 100% activity. The individual signals in each of the compound test wells were then divided by the averaged control values after background subtraction and multiplied by 100% to determine percent activity. EC50 values for a protease inhibitor titration were calculated as the concentration which caused a 50% reduction in FRET or luciferase activity. The two numbers generated for the compound plate, percent cytoxicity and percent activity were used to determine compounds of interest for further analysis.
The HCV replicon luciferase assay was developed to monitor the inhibitory effects of compounds described in the disclosure on HCV viral replication. Utilization of a replicon luciferase reporter assay was first described by Krieger et al (Krieger, N. et al., J. Virology, 75(10):4614-4624 (2001)). HUH-7 cells, constitutively expressing the HCV replicon, were grown in Dulbecco's Modified Eagle Media (DMEM) (Gibco-BRL) containing 10% Fetal calf serum (FCS) (Sigma) and 1 mg/ml G418 (Gibco-BRL). […]

T1 sequence (Q9WMX2 2420-2992): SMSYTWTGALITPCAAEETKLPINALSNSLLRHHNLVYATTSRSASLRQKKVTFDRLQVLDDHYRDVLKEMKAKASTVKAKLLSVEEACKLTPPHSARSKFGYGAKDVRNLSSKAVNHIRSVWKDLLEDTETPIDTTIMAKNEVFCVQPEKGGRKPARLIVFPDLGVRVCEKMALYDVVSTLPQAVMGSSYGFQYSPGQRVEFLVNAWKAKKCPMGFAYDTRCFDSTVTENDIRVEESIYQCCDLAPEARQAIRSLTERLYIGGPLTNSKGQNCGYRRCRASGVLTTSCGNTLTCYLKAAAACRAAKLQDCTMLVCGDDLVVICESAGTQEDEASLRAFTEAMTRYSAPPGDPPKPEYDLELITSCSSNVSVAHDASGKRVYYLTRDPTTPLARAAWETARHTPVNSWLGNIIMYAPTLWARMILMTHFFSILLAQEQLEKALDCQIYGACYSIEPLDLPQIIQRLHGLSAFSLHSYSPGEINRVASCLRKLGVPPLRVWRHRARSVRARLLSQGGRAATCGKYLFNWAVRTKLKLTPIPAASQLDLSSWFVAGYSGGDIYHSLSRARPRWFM

| Structure (SMILES) | IC50 (HCV NS5B; class symbol) | EC50 (HCV replicon; class symbol) | IC50 (HCV NS5B; exact value) | EC50 (HCV replicon; exact value) |
| --- | --- | --- | --- | --- |
| CCN1C[C@@H]2C[C@H]1CN2C(=O)c1cnn(C2CCOCC2)c1C1=Cc2cc(OC)ccc2-c2c(C3CCCCC3)c3ccc(C(=O)NS(=O)(=O)CC(C)C)cc3n2C1 | 1.7 to 500 nM | 1.7 to 500 nM | – | – |
| COc1ccc2c(c1)C=C(c1c(C(=O)N3CC4CCC(C3)N4C)cnn1C1CCOCC1)Cn1c-2c(C2CCCCC2)c2ccc(C(=O)NS(=O)(=O)CC(C)C)cc21 | 1.7 to 500 nM | 1.7 to 500 nM | – | – |
| COc1ccc2c(c1)C=C(c1c(C(=O)N3C[C@@H](C)O[C@@H](C)C3)cnn1-c1ccncc1C)Cn1c-2c(C2CCCCC2)c2ccc(C(=O)NS(=O)(=O)C3CC3)cc21 | 1.7 to 500 nM | 1.7 to 500 nM | – | – |
| COc1ccc2c(c1)C=C(c1c(C(=O)N3C[C@@H](C)O[C@@H](C)C3)cnn1-c1ccccc1)Cn1c-2c(C2CCCCC2)c2ccc(C(=O)NS(=O)(=O)C(C)C)cc21 | 1.7 to 500 nM | 1.7 to 500 nM | – | – |
| COc1ccc2c(c1)C=C(c1c(C(=O)N3C[C@@H](C)O[C@@H](C)C3)cnn1-c1ccccn1)Cn1c-2c(C2CCCCC2)c2ccc(C(=O)NS(=O)(=O)C(C)C)cc21 | 1.7 to 500 nM | 1.7 to 500 nM | – | – |
| COc1ccc2c(c1)C=C(c1c(C(=O)N3C[C@@H](C)O[C@@H](C)C3)cnn1C1CCCC1)Cn1c-2c(C2CCCCC2)c2ccc(C(=O)NS(=O)(=O)C(C)C)cc21 | 1.7 to 500 nM | 1.7 to 500 nM | – | – |
| COc1ccc2c(c1)C=C(c1c(C(=O)N3C[C@@H](C)O[C@@H](C)C3)cnn1-c1ncccn1)Cn1c-2c(C2CCCCC2)c2ccc(C(=O)NS(=O)(=O)C(C)C)cc21 | 1.7 to 500 nM | 1.7 to 500 nM | – | – |
| COc1ccc2c(c1)C=C(c1c(C(=O)N3C[C@@H](C)O[C@@H](C)C3)cnn1-c1cc[nH]c(=O)c1)Cn1c-2c(C2CCCCC2)c2ccc(C(=O)NS(=O)(=O)C(C)C)cc21 | 1.7 to 500 nM | > 1000 nM | 8.9 nM | > 1000 nM |
| COc1ccc2c(c1)C=C(c1c(C(=O)N3C[C@@H](C)O[C@@H](C)C3)cnn1-c1ccncc1)Cn1c-2c(C2CCCCC2)c2ccc(C(=O)NS(=O)(=O)C(C)C)cc21 | 1.7 to 500 nM | 1.7 to 500 nM | – | – |
| COc1ccc2c(c1)C=C(c1c(C(=O)N3C[C@@H](C)O[C@@H](C)C3)cnn1-c1ccnc(C)c1)Cn1c-2c(C2CCCCC2)c2ccc(C(=O)NS(=O)(=O)C(C)C)cc21 | 1.7 to 500 nM | 1.7 to 500 nM | – | – |
| COc1ccc2c(c1)C=C(c1c(C(=O)N3C[C@@H](C)O[C@@H](C)C3)cnn1-c1cccnc1)Cn1c-2c(C2CCCCC2)c2ccc(C(=O)NS(=O)(=O)C(C)C)cc21 | 1.7 to 500 nM | 1.7 to 500 nM | – | – |
| COc1ccc2c(c1)C=C(c1c(C(=O)N3C[C@@H](C)O[C@@H](C)C3)cnn1-c1nc3ccccc3[nH]1)Cn1c-2c(C2CCCCC2)c2ccc(C(=O)NS(=O)(=O)C(C)C)cc21 | 1.7 to 500 nM | 1.7 to 500 nM | 9 nM | 150 nM |
| COc1ccc2c(c1)C=C(c1c(C(=O)N3C[C@@H](C)O[C@@H](C)C3)cnn1-c1cnccn1)Cn1c-2c(C2CCCCC2)c2ccc(C(=O)NS(=O)(=O)C(C)C)cc21 | 1.7 to 500 nM | 1.7 to 500 nM | – | – |
| COc1ccc2c(c1)C=C(c1c(C(=O)N3CCOCC3)noc1C1CC1)Cn1c-2c(C2CCCCC2)c2ccc(C(=O)NS(=O)(=O)N(C)C)cc21 | 1.7 to 500 nM | 1.7 to 500 nM | – | – |
| COc1ccc2c(c1)C=C(c1c(C(=O)N3C[C@@H](C)O[C@@H](C)C3)noc1C1CC1)Cn1c-2c(C2CCCCC2)c2ccc(C(=O)NS(=O)(=O)N(C)C)cc21 | 1.7 to 500 nM | 1.7 to 500 nM | – | – |
| COC[C@@H]1CN(C(=O)c2cnn(C3CCC3)c2C2=Cc3cc(OC)ccc3-c3c(C4CCCCC4)c4ccc(C(=O)NS(=O)(=O)C(C)C)cc4n3C2)CCO1 | 1.7 to 500 nM | 1.7 to 500 nM | – | – |
| COc1ccc2c(c1)C=C(c1c(C(=O)N3CC4CCC(C3)O4)cnn1C1CCC1)Cn1c-2c(C2CCCCC2)c2ccc(C(=O)NS(=O)(=O)C(C)C)cc21 | 1.7 to 500 nM | 1.7 to 500 nM | 3.9 nM | 10 nM |
| COc1ccc2c(c1)C=C(c1c(C(=O)N3CCN(C)CC3)cnn1C1CCC1)Cn1c-2c(C2CCCCC2)c2ccc(C(=O)NS(=O)(=O)C(C)C)cc21 | 1.7 to 500 nM | 1.7 to 500 nM | – | – |
| COc1ccc2c(c1)C=C(c1c(C(=O)N3C[C@@H]4C[C@H]3CO4)cnn1C1CCC1)Cn1c-2c(C2CCCCC2)c2ccc(C(=O)NS(=O)(=O)C(C)C)cc21 | 1.7 to 500 nM | 1.7 to 500 nM | 5.4 nM | 30 nM |
| COc1ccc2c(c1)C=C(c1c(C(=O)N3C[C@@H]4C[C@H]3CN4CC3CC3)cnn1C1CCC1)Cn1c-2c(C2CCCCC2)c2ccc(C(=O)NS(=O)(=O)C(C)C)cc21 | 1.7 to 500 nM | 1.7 to 500 nM | – | – |
| COc1ccc2c(c1)C=C(c1c(C(=O)N3CCN4CCC[C@H]4C3)cnn1C1CCC1)Cn1c-2c(C2CCCCC2)c2ccc(C(=O)NS(=O)(=O)C(C)C)cc21 | 1.7 to 500 nM | 1.7 to 500 nM | – | – |
| COc1ccc2c(c1)C=C(c1c(C(=O)N3C[C@]4(C)CN(C)C[C@](C)(C3)C4)cnn1C1CCC1)Cn1c-2c(C2CCCCC2)c2ccc(C(=O)NS(=O)(=O)C(C)C)cc21 | 1.7 to 500 nM | 1.7 to 500 nM | – | – |

— patent US8133884B2, “Compounds for the treatment of hepatitis C” (priority 2008, dated 2012)
